What was measured:
[1] = tested on: PC-3 prostate cancer cell line; test: SRB assay cell viability, PC-3 prostate cancer cell line; assay type: cell-based, human; details: Homo sapiens, PC-3 prostate cancer cell line, Table II prints no unit, μM printed, read-out: SRB assay: 50% inhibition of cancer cell proliferation of sample concentration (IC50) of PC-3 prostate cancer cell line
CCRF-CEM = test: NCI screening platform one-dose single concentration screening, leukemia CCRF-CEM; assay type: cell-based, human; details: 10 μM
HL-60, TB = test: NCI one-dose screening, leukemia HL-60, TB; assay type: cell-based, human; details: 10 μM
MOLT-4 = test: NCI one-dose screening, leukemia MOLT-4; assay type: cell-based, human; details: 10 μM
SR = test: NCI one-dose screening, leukemia SR; assay type: cell-based, human; details: 10 μM
PRMI-8226 cell line = test: NCI one-dose screening, leukemia PRMI-8226; assay type: cell-based, human; details: 10 μM
K562cell line = test: NCI one-dose screening, leukemia K562; assay type: cell-based, human; details: 10 μM
EKVX = test: NCI one-dose screening, non-small cell lung cancer EKVX; assay type: cell-based, human; details: 10 μM
HOP-62 = test: NCI one-dose screening, non-small cell lung cancer HOP-62; assay type: cell-based, human; details: 10 μM
HOP-92 = test: NCI one-dose screening, non-small cell lung cancer HOP-92; assay type: cell-based, human; details: 10 μM
NCI-H226 = test: NCI one-dose screening, non-small cell lung cancer NCI-H226; assay type: cell-based, human; details: 10 μM
NCI-H23 = test: NCI one-dose screening, non-small cell lung cancer NCI-H23; assay type: cell-based, human; details: 10 μM
NCI-H322M = test: NCI one-dose screening, non-small cell lung cancer NCI-H322M; assay type: cell-based, human; details: 10 μM; Non-small cell lung cancer
NCI-H460 = test: NCI one-dose screening, non-small cell lung cancer NCI-H460; assay type: cell-based, human; details: 10 μM
NCI-H522 = test: NCI one-dose screening, non-small cell lung cancer NCI-H522; assay type: cell-based, human; details: 10 μM
A549/ATCC = test: NCI one-dose screening, non-small cell lung cancer A549/ATCC; assay type: cell-based, human; details: 10 μM
COLO 205 = test: NCI one-dose screening, colon cancer COLO 205; assay type: cell-based, human; details: 10 μM
HCC-2998 = test: NCI one-dose screening, colon cancer HCC-2998; assay type: cell-based, human; details: 10 μM
HCT-116 = test: NCI one-dose screening, colon cancer HCT-116; assay type: cell-based, human; details: 10 μM
HCT-15 = test: NCI one-dose screening, colon cancer HCT-15; assay type: cell-based, human; details: 10 μM
KM12 = test: NCI one-dose screening, colon cancer KM12; assay type: cell-based, human; details: 10 μM
SF-268 = test: NCI one-dose screening, CNS cancer SF-268; assay type: cell-based, human; details: 10 μM
SF-295 = test: NCI one-dose screening, CNS cancer SF-295; assay type: cell-based, human; details: 10 μM
SF-539 = test: NCI one-dose screening, CNS cancer SF-539; assay type: cell-based, human; details: 10 μM
SNB-19 = test: NCI one-dose screening, CNS cancer SNB-19; assay type: cell-based, human; details: 10 μM
SNB-75 = test: NCI one-dose screening, CNS cancer SNB-75; assay type: cell-based, human; details: 10 μM
U251 = test: NCI one-dose screening, CNS cancer U251; assay type: cell-based, human; details: 10 μM
LOX IMVI = test: NCI one-dose screening, melanoma LOX IMVI; assay type: cell-based, human; details: 10 μM
MALME-3M = test: NCI one-dose screening, melanoma MALME-3M; assay type: cell-based, human; details: 10 μM
M14 = test: NCI one-dose screening, melanoma M14; assay type: cell-based, human; details: 10 μM
UACC-62 = test: NCI one-dose screening, melanoma UACC-62; assay type: cell-based, human; details: 10 μM
UACC-257 = test: NCI one-dose screening, melanoma UACC-257; assay type: cell-based, human; details: 10 μM
SK-MEL-2 = test: NCI one-dose screening, melanoma SK-MEL-2; assay type: cell-based, human; details: 10 μM
SK-MEL-28 = test: NCI one-dose screening, melanoma SK-MEL-28; assay type: cell-based, human; details: 10 μM
SK-MEL-5 = test: NCI one-dose screening, melanoma SK-MEL-5; assay type: cell-based, human; details: 10 μM
IGROV1 = test: NCI one-dose screening, ovarian cancer IGROV1; assay type: cell-based, human; details: 10 μM
OVCAR-3 = test: NCI one-dose screening, ovarian cancer OVCAR-3; assay type: cell-based, human; details: 10 μM
OVCAR-4 = test: NCI one-dose screening, ovarian cancer OVCAR-4; assay type: cell-based, human; details: 10 μM
OVCAR-8 = test: NCI one-dose screening, ovarian cancer OVCAR-8; assay type: cell-based, human; details: 10 μM
SK-OV-3 = test: NCI one-dose screening, ovarian cancer SK-OV-3; assay type: cell-based, human; details: 10 μM
786-O = test: NCI one-dose screening, renal cancer 786-O; assay type: cell-based, human; details: 10 μM
CAKI-1 = test: NCI one-dose screening, renal cancer CAKI-1; assay type: cell-based, human; details: 10 μM
[2] = NCI one-dose screening, renal cancer A489; assay type: cell-based, human; details: 10 μM
SN12C = test: NCI one-dose screening, renal cancer SN12C; assay type: cell-based, human; details: 10 μM
TK-10 = test: NCI one-dose screening, renal cancer TK-10; assay type: cell-based, human; details: 10 μM
UO-31 = test: NCI one-dose screening, renal cancer UO-31; assay type: cell-based, human; details: 10 μM
RXF, 393 = test: NCI one-dose screening, renal cancer RXF, 393; assay type: cell-based, human; details: 10 μM
DU145 = test: NCI one-dose screening, prostate cancer DU145; assay type: cell-based, human; details: 10 μM
PC-3 = test: NCI one-dose screening, prostate cancer PC-3; assay type: cell-based, human; details: 10 μM
MCF7 = test: NCI one-dose screening, breast cancer MCF7; assay type: cell-based, human; details: 10 μM
HS 578-T = test: NCI one-dose screening, breast cancer HS 578-T; assay type: cell-based, human; details: 10 μM; Breast cancer
MDA-MB-231/ATCC = test: NCI one-dose screening, breast cancer MDA-MB-231/ATCC; assay type: cell-based, human; details: 10 μM
MDA-MB-468 = test: NCI one-dose screening, breast cancer MDA-MB-468; assay type: cell-based, human; details: 10 μM
NCl/ADR-RES = test: NCI one-dose screening, breast cancer NCl/ADR-RES; assay type: cell-based, human; details: 10 μM; listed under Ovarian cancer
BT-549 = test: NCI one-dose screening, breast cancer BT-549; assay type: cell-based, human; details: 10 μM
T-47D = test: NCI one-dose screening, breast cancer T-47D; assay type: cell-based, human; details: 10 μM
MDA, -MB-435 = test: NCI one-dose screening, breast cancer MDA, -MB-435; assay type: cell-based, human; details: 10 μM; listed under Melanoma
human tumor cell lines = test: NCI one-dose screening, Mean / Delta / Range of growth percent over all tested cell lines; assay type: cell-based; details: 10 μM

O=C1c2ccccc2C(=O)c2c1cc(N1CCOCC1)c1nsnc21 [C10, 4-morpholino-anthra[2,1-c][1,2,5] thiadiazol-6,11-dione]
IC50 [1]: 3.75 µM
Growth Percent CCRF-CEM (CCRF-CEM): 48.31%
Growth Percent HL-60(TB) (HL-60, TB): 66.73%
Growth Percent MOLT-4 (MOLT-4): 47.64%
Growth Percent SR (SR): 68.92%
Growth Percent RPMI-8226 (PRMI-8226 cell line): 61.17%
Growth Percent K562 (K562cell line): 48.27%
Growth Percent EKVX (EKVX): 84.52%
Growth Percent HOP-62 (HOP-62): 60.63%
Growth Percent HOP-92 (HOP-92): 90.59%
Growth Percent NCI-H226 (NCI-H226): 87.42%
Growth Percent NCI-H23 (NCI-H23): 39.65%
Growth Percent NCI-H322M (NCI-H322M): 98.00%
Growth Percent NCI-H460 (NCI-H460): 88.64%
Growth Percent NCI-H522 (NCI-H522): 79.03%
Growth Percent A549/ATCC (A549/ATCC): 100.58%
Growth Percent COLO 205 (COLO 205): 104.19%
Growth Percent HCC-2998 (HCC-2998): 107.48%
Growth Percent HCT-116 (HCT-116): 18.89%
Growth Percent HCT-15 (HCT-15): 55.97%
Growth Percent KM12 (KM12): 83.91%
Growth Percent SF-268 (SF-268): 75.83%
Growth Percent SF-295 (SF-295): 95.84. Percent
Growth Percent SF-539 (SF-539): 88.62%
Growth Percent SNB-19 (SNB-19): 84.82%
Growth Percent SNB-75 (SNB-75): 51.11%
Growth Percent U251 (U251): 59.35%
Growth Percent LOX IMVI (LOX IMVI): 13.57%
Growth Percent MALME-3M (MALME-3M): 61.99%
Growth Percent M14 (M14): 75.06%
Growth Percent UACC-62 (UACC-62): 62.43%
Growth Percent UACC-257 (UACC-257): 79.36%
Growth Percent SK-MEL-2 (SK-MEL-2): 88.38%
Growth Percent SK-MEL-28 (SK-MEL-28): 104.55%
Growth Percent SK-MEL-5 (SK-MEL-5): 15.98%
Growth Percent IGROV1 (IGROV1): 54.88%
Growth Percent OVCAR-3 (OVCAR-3): 6.64%
Growth Percent OVCAR-4 (OVCAR-4): 28.69%
Growth Percent OVCAR-8 (OVCAR-8): 43.29%
Growth Percent SK-OV-3 (SK-OV-3): 104.65%
Growth Percent 786-0 (786-O): 109.16%
Growth Percent CAKI-1 (CAKI-1): 61.73%
Growth Percent A498 [2]: 88.30%
Growth Percent SN12C (SN12C): 71.73%
Growth Percent TK-10 (TK-10): 131.28%
Growth Percent UO-31 (UO-31): 53.93%
Growth Percent RXF 393 (RXF, 393): 98.14%
Growth Percent DU145 (DU145): 68.98%
Growth Percent PC-3 (PC-3): 56.59%
Growth Percent MCF7 (MCF7): 55.12%
Growth Percent HS 578T (HS 578-T): 88.35%
Growth Percent MDA-MB-231/ATCC (MDA-MB-231/ATCC): 39.16%
Growth Percent MDA-MB-468 (MDA-MB-468): 45.59%
Growth Percent NCI/ADR-RES (NCl/ADR-RES): 43.58%
Growth Percent BT-549 (BT-549): 93.78%
Growth Percent T-47D (T-47D): 60.04%
Growth Percent MDA-MB-435 (MDA, -MB-435): 0.52%
melting point: 259 to 260 °C
Growth Percent Delta (human tumor cell lines; delta over all cell lines): 67.45%
Growth Percent Mean (human tumor cell lines; mean over all cell lines): 67.97%
Growth Percent Range (human tumor cell lines; range over all cell lines): 130.76%
